The values that follow come from PMC2833264 (Photosynthesis research, 2009).

Usually Kd stands for the equilibrium constant for the complex coming apart. The low end stands for higher affinity, the high end for lower affinity.

The assay concerns the target T1, C. reinhardtii nitrite reductase (Chlamydomonas reinhardtii, UniProt Q9ZR67).
T1 sequence (Q9ZR67 29-589): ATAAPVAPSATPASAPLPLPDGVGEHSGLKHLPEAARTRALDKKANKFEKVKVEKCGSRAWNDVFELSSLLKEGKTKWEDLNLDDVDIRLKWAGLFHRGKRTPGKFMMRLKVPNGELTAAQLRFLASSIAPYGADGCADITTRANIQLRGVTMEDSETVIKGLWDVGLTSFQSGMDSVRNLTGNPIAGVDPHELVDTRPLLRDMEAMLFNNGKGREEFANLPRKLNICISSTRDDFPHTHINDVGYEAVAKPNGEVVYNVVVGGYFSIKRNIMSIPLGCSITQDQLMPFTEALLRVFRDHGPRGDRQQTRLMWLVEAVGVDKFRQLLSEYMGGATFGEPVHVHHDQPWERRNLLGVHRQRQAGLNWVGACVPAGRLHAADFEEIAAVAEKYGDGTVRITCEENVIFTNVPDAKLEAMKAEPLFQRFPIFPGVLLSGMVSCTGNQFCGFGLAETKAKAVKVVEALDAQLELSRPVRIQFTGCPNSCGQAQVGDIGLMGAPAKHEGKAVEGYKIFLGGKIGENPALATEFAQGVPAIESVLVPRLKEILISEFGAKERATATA
Description: spectral perturbation titration. In kind it is binding.

For the compound `O=NO` [nitrite], the Kd is 50 µM.
